Measurements taken from patent US6887886B2, “Therapeutic compositions comprising excess enantiomer” (Pfizer Inc., priority 2000, dated 2005).
Where “and” joins values, the source holds several entries; their conditions need not be identical. Equal values may be shown once.

Tests used:
[1] = test system: canine coronary microvessels, epicardial coronary artery and aorta; assay: nitrite production (vascular NO release) in canine coronary microvessels, epicardial coronary artery and aorta; format: cell-based
canine myocardium = assay: cardiac oxygen consumption in canine myocardium in vitro; format: cell-based
[2] = test system: hypoxic Langendorff mouse hearts; assay: hypoxic Langendorff mouse hearts perfused with enantiomer: myocardial glucose uptake and time to cessation of beating; conditions: hypoxic heart, 10^−7M solution
[3] = test system: vascular smooth muscle cell; conditions: in vitro; cited from earlier work
[4] = in vivo; cited from earlier work
calcium channel = conditions: cited from earlier work
[5] = identical study, increasing concentrations

| SMILES | effect of NO synthase inhibitor L-NAME on the increase in nitrite production [1] | concentration-dependent increase in nitrite production, up to ([1]; enantiomer concentration of 10^−9M) | free concentration at which maximum NO release as measured by nitrite production was observed ([1]; free concentration) | effect of NO synthase inhibitor L-NAME on the reduction in oxygen consumption (canine myocardium) | reduction in oxygen consumption (canine myocardium; enantiomer concentration of 10^−5M) | increase in survival time [2] | reduction in myocardial glucose uptake [2] | time to cessation of beating (TCB) ([2]; untreated 9 minutes) | myocardial glucose uptake (MGU) ([2]; untreated hypoxic 0.57, normoxic 0.36) [μg/min.mg] | PDGF-induced vascular smooth muscle cell migration [3] | nitrite production (in words) [1, 5] | reduction in oxygen consumption (in words) (canine myocardium; [5]) | dose in excess of which adverse effects arise (marked and sustained fall in blood pressure, reduced coronary blood flow) [4] [mg/kg] | calcium channel-blocking activity of the racemate resides in (calcium channel) |
| --- | --- | --- | --- | --- | --- | --- | --- | --- | --- | --- | --- | --- | --- | --- |
| CCOC(=O)C1=C(COCCN)NC(C)=C(C(=O)OC)[C@H]1c1ccccc1Cl (single isomer, unassigned) [R(+) enantiomer] | wholly or partly blocked | about 65 pmol/mg | 10^−9 M and 0.4 ng/ml | wholly or partly blocked | about 30% | three-fold | over 50% | about 33 minutes | 0.27 | inhibit | – | – | – | – |
| CCOC(=O)C1=C(COCCN)NC(C)=C(C(=O)OC)[C@@H]1c1ccccc1Cl (single isomer, unassigned) [S(−) enantiomer] | – | – | – | not blocked | – | – | – | – | – | – | no evidence of nitrite production | a reduction in oxygen consumption was observed | > 0.5 | largely, but not exclusively |
